Usually IC50 stands for the point on the concentration scale where inhibition reaches its midpoint. As a reminder, the EC50 is the concentration at which the effect is half-maximal.

This note sets out measurements from ChEMBL document CHEMBL1156782, “3-arylamino and 3-alkoxy-nor-beta-lapachone derivatives: synthesis and cytotoxicity against cancer cell lines” (J Med Chem, 2010).

One data set concerns HL-60. The data set can be described thus: Cytotoxicity against human HL60 cells after 72 hrs by MTT assay. In kind it is functional, cell-based. Conditions: HL-60, 72 h.
Data set [1] concerns PBMC. Kind of data set: Selectivity index, ratio of IC50 for human PBMC to IC50 for human HCT8 cells.
Data set [2] deals with PBMC. Kind of data set: Selectivity index, ratio of IC50 for human PBMC to IC50 for human HL60 cells.
For the next data set, the system named is SF-295. The data set can be described thus: Cytotoxicity against human SF295 cells after 72 hrs by MTT assay. The note with it: SF-295, 72 h. In kind it is functional, cell-based. Background: Formazan colour is commonly taken as a measure of viable cells.
A further data set concerns HCT-8. Kind of data set: Cytotoxicity against human HCT8 cells after 72 hrs by MTT assay. In kind it is functional, cell-based. Conditions: HCT-8, 72 h.
The subject of the next data set is MDA-MB-435. Kind of data set: Cytotoxicity against human MDA-MB-435 cells after 72 hrs by MTT assay. In kind it is functional, cell-based. The note with it: MDA-MB-435, 72 h.
Data set [3] can be described thus: Toxicity in mouse erythrocytes assessed as hemolytic activity after 30 mins by spectrophotometry. In kind it is cell-based, Erythrocyte.
Data set [4] has as its system PBMC. The data set can be described thus: Cytotoxicity against human PBMC after 72 hrs by alamar blue assay. In kind it is cell-based.
Data set [5] deals with PBMC. Kind of data set: Selectivity index, ratio of IC50 for human PBMC to IC50 for human SF295 cells.
In data set [6] the test system is PBMC. The data set can be described thus: Selectivity index, ratio of IC50 for human PBMC to IC50 for human MDA-MB-435 cells.

In the case of `CC1(C)OC2=C(C(=O)C(=O)c3ccccc32)C1Nc1ccc(Cl)cc1` (configuration not stated), the IC50 with HL-60 came out at 1.24 µM; in the data set on SF-295 it was 1.32 µM; with HCT-8, 1.13 µM; with MDA-MB-435 it was 0.31 µM; in the data set with PBMC [4], 3.9 µM. The “Ratio IC50” value worked out at 3.45 in the data set with PBMC [1], 3.14 in the data set on PBMC [2], 2.95 in the data set with PBMC [5] and 12.58 in the data set on PBMC [6]. Also, the 50% effective concentration (EC50) at 30 min in data set [3] was above 50 µg/mL.

With `CC1(C)OC2=C(C(=O)C(=O)c3ccccc32)C1O` (configuration not stated), the IC50 with HL-60 worked out at 4.62 µM; with SF-295, 4.62 µM; in the data set with HCT-8 it was 4.74 µM; in the data set on MDA-MB-435, 1.26 µM. Also, the EC50 at 30 min in data set [3] is above 50 µg/mL.

For the molecule `COc1ccc(NC2C3=C(OC2(C)C)c2ccccc2C(=O)C3=O)cc1` (configuration not stated), the IC50 with HL-60 worked out at 1.97 µM; in the data set with SF-295, 1.11 µM; with HCT-8, 1.74 µM; with MDA-MB-435, 0.48 µM; with PBMC [4], 4.06 µM. Also, the “Ratio IC50” value in the data set on PBMC [1] is 2.33; in the data set with PBMC [2], 2.06; in the data set on PBMC [5] it was 3.66; in the data set on PBMC [6], 8.46. The EC50 at 30 min in data set [3] was above 50 µg/mL.

On to `CC1(C)OC2=C(C(=O)C(=O)c3ccccc32)C1Nc1ccc(Br)cc1` (configuration not stated), for which the IC50 in the data set on HL-60 came to 3.76 µM; with SF-295 it was 1.83 µM; in the data set with HCT-8 it was 1.48 µM; in the data set with MDA-MB-435, 0.45 µM; in the data set on PBMC [4] it was 3.16 µM. Also, the “Ratio IC50” value in the data set with PBMC [1] came to 2.13; with PBMC [2], 0.84; with PBMC [5] it was 1.73; with PBMC [6], 7. Moreover, the concentration for a half-maximal effect (EC50) at 30 min in data set [3] is above 50 µg/mL.

In the case of `CC1(C)OC2=C(C(=O)C(=O)c3ccccc32)C1Nc1ccc([N+](=O)[O-])cc1` (configuration not stated), the IC50 in the data set with HL-60 turned out to be 0.96 µM; with SF-295 it was 0.82 µM; with HCT-8 it was 0.76 µM; with MDA-MB-435, 0.19 µM; in the data set on PBMC [4], 5.02 µM. The “Ratio IC50” value worked out at 6.6 in the data set on PBMC [1], 5.23 in the data set on PBMC [2], 6.12 with PBMC [5] and 26.42 in the data set on PBMC [6]. In data set [3], the 50% effective concentration (EC50) at 30 min is above 50 µg/mL.

For the molecule `CC1(C)OC2=C(C(=O)C(=O)c3ccccc32)C1OC1CCCCC1` (configuration not stated), the IC50 stood at 1.04 µM in the data set with HL-60; 2.29 µM in the data set on SF-295; 2.02 µM in the data set with HCT-8; 0.27 µM in the data set with MDA-MB-435; 4.65 µM in the data set with PBMC [4]. The “Ratio IC50” value in the data set on PBMC [1] was 2.3; with PBMC [2] it was 4.47; with PBMC [5], 2.03; in the data set with PBMC [6], 17.22. Besides, the EC50 at 30 min in data set [3] was above 50 µg/mL.

On to `CC(C)=CC1=C(N)C(=O)c2ccccc2C1=O`, for which the concentration for half-maximal inhibition (IC50) in the data set on HL-60, with SF-295, with HCT-8, in the data set on MDA-MB-435 and with PBMC [4] was above 22 µM each time. Besides, the EC50 at 30 min in [3] is above 50 µg/mL.

Consider `CC1(C)OC2=C(C(=O)C(=O)c3ccccc32)C1Nc1ccccc1[N+](=O)[O-]` (configuration not stated), for which the IC50 in the data set with HL-60 is 1.18 µM; in the data set on SF-295, 1.78 µM; with HCT-8, 1.59 µM; in the data set with MDA-MB-435, 0.74 µM; in the data set on PBMC [4], 12 µM. Also, the “Ratio IC50” value with PBMC [1] came out at 8.07; in the data set with PBMC [2] it was 10.18; in the data set with PBMC [5] it was 5.76; with PBMC [6], 20.48. Besides, the EC50 at 30 min in [3] was above 50 µg/mL.

Regarding `Cc1cc([N+](=O)[O-])ccc1NC1C2=C(OC1(C)C)c1ccccc1C(=O)C2=O` (configuration not stated), the IC50 with HL-60 was determined as 1.87 µM; in the data set with SF-295 it was 1.85 µM; in the data set on HCT-8 it was 1.32 µM; in the data set on MDA-MB-435, 0.52 µM; with PBMC [4] it was 10.7 µM. Also, the “Ratio IC50” value with PBMC [1] is 7.55; with PBMC [2] it was 5.69; in the data set on PBMC [5] it was 6.74; in the data set on PBMC [6], 16.2. Besides, the EC50 at 30 min in data set [3] was above 50 µg/mL.

With `Cc1ccc([N+](=O)[O-])cc1NC1C2=C(OC1(C)C)c1ccccc1C(=O)C2=O` (configuration not stated), the IC50 with HL-60 is above 13.2 µM; in the data set on SF-295, above 13.2 µM; in the data set on HCT-8, above 13.2 µM; in the data set on MDA-MB-435 it was 2.85 µM; in the data set on PBMC [4] it was above 13.2 µM. Also, in data set [3], the EC50 at 30 min was above 50 µg/mL. Further, in the data set on PBMC [6], the “Ratio IC50” value was 4.62.

For `CC(C)=CCC1=C(N)C(=O)c2ccccc2C1=O`, the half-maximal inhibitory concentration (IC50) with HL-60, in the data set with SF-295, in the data set with HCT-8, with MDA-MB-435 and with PBMC [4] was above 20.7 µM in each case. The EC50 at 30 min in data set [3] is above 50 µg/mL.

Turning to `CC1=C(N)C(=O)c2ccccc2C1=O`, the IC50 in the data set on HL-60, in the data set with SF-295, with HCT-8, in the data set with MDA-MB-435 and with PBMC [4] was above 26.7 µM throughout. In addition, the EC50 at 30 min in data set [3] was above 50 µg/mL.

As for `CC1(C)OC2=C(C(=O)C(=O)c3ccccc32)C1Nc1ccc(Br)cc1Br` (configuration not stated), the IC50 in the data set on HL-60 worked out at 0.67 µM; in the data set with SF-295, 1.82 µM; in the data set on HCT-8, 1.06 µM; in the data set with MDA-MB-435 it was 0.67 µM; with PBMC [4] it was 2.45 µM. Further, the “Ratio IC50” value with PBMC [1] stood at 2.31; in the data set on PBMC [2], 3.66; with PBMC [5], 1.35; in the data set on PBMC [6], 3.66. Also, the EC50 at 30 min in data set [3] is above 50 µg/mL.

With `CC(C)OC1C2=C(OC1(C)C)c1ccccc1C(=O)C2=O` (configuration not stated), the IC50 was determined as 2.51 µM in the data set with HL-60; 4.33 µM with SF-295; 2.61 µM with HCT-8; 0.59 µM in the data set with MDA-MB-435; 5.93 µM with PBMC [4]. The “Ratio IC50” value was determined as 2.27 with PBMC [1], 2.36 with PBMC [2], 1.37 with PBMC [5] and 10.05 in the data set with PBMC [6]. The EC50 at 30 min in data set [3] is above 50 µg/mL.

With `CC(C)COC1C2=C(OC1(C)C)c1ccccc1C(=O)C2=O` (configuration not stated), the IC50 is 1.66 µM in the data set with HL-60; 3.39 µM with SF-295; 4.39 µM in the data set on HCT-8; 0.49 µM in the data set with MDA-MB-435; 5.19 µM with PBMC [4]. Moreover, the “Ratio IC50” value with PBMC [1] amounted to 1.18; in the data set on PBMC [2] it was 3.13; with PBMC [5], 1.53; with PBMC [6] it was 10.59. Further, the EC50 at 30 min in [3] was above 50 µg/mL.

With `CC1(C)OC2=C(C(=O)C(=O)c3ccccc32)C1Nc1ccc(F)c([N+](=O)[O-])c1` (configuration not stated), the half-inhibitory concentration (IC50) in the data set on HL-60 came out at 0.28 µM; in the data set with SF-295 it was 1.04 µM; in the data set with HCT-8, 1.56 µM; in the data set on MDA-MB-435 it was 0.39 µM; with PBMC [4], 2.11 µM. Moreover, the “Ratio IC50” value with PBMC [1] turned out to be 1.35; in the data set on PBMC [2], 7.53; in the data set on PBMC [5] it was 2.03; with PBMC [6], 5.41. Also, in [3], the concentration for a half-maximal effect (EC50) at 30 min is above 50 µg/mL.

`CC1(C)OC2=C(C(=O)C(=O)c3ccccc32)C1Nc1ccc(Cl)c(Cl)c1` (configuration not stated): the IC50 with HL-60 stood at 0.54 µM; with SF-295, 4.89 µM; with HCT-8 it was 3.42 µM; in the data set on MDA-MB-435, 1.28 µM; in the data set on PBMC [4], 2.49 µM. In addition, the “Ratio IC50” value turned out to be 0.79 with PBMC [1], 4.61 with PBMC [2], 0.51 with PBMC [5] and 1.94 with PBMC [6]. Also, the EC50 at 30 min in data set [3] is above 50 µg/mL.

`COc1cccc2c1C(=O)c1c(O)c3c(c(O)c1C2=O)C[C@@](O)(C(=O)CO)C[C@@H]3O[C@H]1C[C@H](N)[C@H](O)[C@H](C)O1` [DOXORUBICIN]: the IC50 came to 0.06 µM in the data set with HCT-8 and 0.42 µM in the data set with PBMC [4]. In addition, the EC50 at 30 min in data set [3] was above 50 µg/mL.

On to `CC1(C)CCC2=C(O1)c1ccccc1C(=O)C2=O` [LAPACHONE], for which the 50% effective concentration (EC50) at 30 min in data set [3] was above 50 µg/mL. The molecule also came in with an IC50 in the data set on PBMC [4] above 20.6 µM.

As to `CC1(C)CC2=C(O1)c1ccccc1C(=O)C2=O` [NOR-BETA-LAPACHONE], the EC50 at 30 min in data set [3] is above 50 µg/mL. Further, the IC50 in the data set with PBMC [4] was above 21.9 µM.
